Laboratory results published in PubChem BioAssay AID1259407 (Chemical Carcinogenesis Research Information System (CCRIS), 2018).
The source made the active and inactive calls. How the calls were made is not given here.

Tested on: CCRIS mutagenicity, Ames/micronucleus/aberration tests
Assay: CCRIS mutagenicity studies
Conditions: Test System: AMES SALMONELLA TYPHIMURIUM
[1] = Strain/Indicator: TA100, Metabolic Activation: NONE, Method: STANDARD PLATE

Measured: mutagenic call

CC(C)C(=O)Nc1ccccc1
inactive: [1] inactive; negative

CCN(CC)Cc1cc(Nc2ccnc3cc(Cl)ccc23)ccc1O
inactive: Strain/Indicator: TA97A, Metabolic Activation: NONE, Method: STANDARD PLATE inactive; negative | Strain/Indicator: TA97A, Metabolic Activation: RAT LIVER S-9, PHENOBARBITAL, Method: STANDARD PLATE inactive; negative | [1] inactive; negative | Strain/Indicator: TA100, Metabolic Activation: RAT LIVER S-9, PHENOBARBITAL, Method: STANDARD PLATE inactive; negative | Strain/Indicator: TA102, Metabolic Activation: NONE, Method: STANDARD PLATE inactive; negative | Strain/Indicator: TA102, Metabolic Activation: RAT LIVER S-9, PHENOBARBITAL, Method: STANDARD PLATE inactive; negative | Strain/Indicator: TA104, Metabolic Activation: NONE, Method: STANDARD PLATE inactive; negative | Strain/Indicator: TA104, Metabolic Activation: RAT LIVER S-9, PHENOBARBITAL, Method: STANDARD PLATE inactive; negative

C=CCCCCCCCCCCC
inactive: Strain/Indicator: TA98, Metabolic Activation: MOUSE, LIVER, S-9, Method: STANDARD PLATE inactive; negative | Strain/Indicator: TA98, Metabolic Activation: NONE, Method: STANDARD PLATE inactive; negative | Strain/Indicator: TA100, Metabolic Activation: MOUSE, LIVER, S-9, Method: STANDARD PLATE inactive; negative | [1] inactive; negative | Strain/Indicator: TA1535, Metabolic Activation: NONE, Method: STANDARD PLATE inactive; negative | Strain/Indicator: TA1538, Metabolic Activation: NONE, Method: STANDARD PLATE inactive; negative

COC[CH2][Hg][Cl]
inactive: Strain/Indicator: TA97, Metabolic Activation: HAMSTER, LIVER, S-9, AROCLOR 1254 (30%), Method: PREINCUBATION inactive; negative | Strain/Indicator: TA97, Metabolic Activation: NONE, Method: PREINCUBATION inactive; negative | Strain/Indicator: TA97, Metabolic Activation: RAT, LIVER, S-9, AROCLOR 1254 (30%), Method: PREINCUBATION inactive; negative | Strain/Indicator: TA98, Metabolic Activation: HAMSTER, LIVER, S-9, AROCLOR 1254 (10%), Method: PREINCUBATION inactive; negative | Strain/Indicator: TA98, Metabolic Activation: HAMSTER, LIVER, S-9, AROCLOR 1254 (30%), Method: PREINCUBATION inactive; negative | Strain/Indicator: TA98, Metabolic Activation: NONE, Method: PREINCUBATION inactive; negative | Strain/Indicator: TA98, Metabolic Activation: RAT, LIVER, S-9, AROCLOR 1254 (10%), Method: PREINCUBATION inactive; negative | Strain/Indicator: TA98, Metabolic Activation: RAT, LIVER, S-9, AROCLOR 1254 (30%), Method: PREINCUBATION inactive; negative | Strain/Indicator: TA100, Metabolic Activation: HAMSTER, LIVER, S-9, AROCLOR 1254 (10%), Method: PREINCUBATION inactive; negative | Strain/Indicator: TA100, Metabolic Activation: HAMSTER, LIVER, S-9, AROCLOR 1254 (30%), Method: PREINCUBATION inactive; negative | Strain/Indicator: TA100, Metabolic Activation: NONE, Method: PREINCUBATION inactive; negative | Strain/Indicator: TA100, Metabolic Activation: RAT, LIVER, S-9, AROCLOR 1254 (10%), Method: PREINCUBATION inactive; negative | Strain/Indicator: TA100, Metabolic Activation: RAT, LIVER, S-9, AROCLOR 1254 (30%), Method: PREINCUBATION inactive; negative | Strain/Indicator: TA1535, Metabolic Activation: HAMSTER, LIVER, S-9, AROCLOR 1254 (10%), Method: PREINCUBATION inactive; negative | Strain/Indicator: TA1535, Metabolic Activation: HAMSTER, LIVER, S-9, AROCLOR 1254 (30%), Method: PREINCUBATION inactive; negative | Strain/Indicator: TA1535, Metabolic Activation: NONE, Method: PREINCUBATION inactive; negative | Strain/Indicator: TA1535, Metabolic Activation: RAT, LIVER, S-9, AROCLOR 1254 (10%), Method: PREINCUBATION inactive; negative | Strain/Indicator: TA1535, Metabolic Activation: RAT, LIVER, S-9, AROCLOR 1254 (30%), Method: PREINCUBATION inactive; negative | Strain/Indicator: TA1537, Metabolic Activation: HAMSTER, LIVER, S-9, AROCLOR 1254 (30%), Method: PREINCUBATION inactive; negative | Strain/Indicator: TA1537, Metabolic Activation: NONE, Method: PREINCUBATION inactive; negative | Strain/Indicator: TA1537, Metabolic Activation: RAT, LIVER, S-9, AROCLOR 1254 (30%), Method: PREINCUBATION inactive; negative
